Test results published in the NIST ThermoML archive (doi:10.1016/j.tca.2011.07.006).
Numbers after ± are expanded uncertainties.

Columns and labels:
[1] = Crystal; DTA
[2] = Molar enthalpy of transition or fusion; conditions: Crystal; DSC

CCn1cc[n+](C)c1.[Cl-].[Cl][Al]([Cl])[Cl] [1-ethyl-3-methyl-1H-imidazolium tetrachloroaluminate]
Normal melting temperature [1]: 6.5 ± 0.5 °C | Molar enthalpy of transition or fusion [2]: 3.3 ± 0.167 kcal/mol

CCn1cc[n+](C)c1.[Cl-] [1-ethyl-3-methylimidazolium chloride]
Normal melting temperature [1]: 97.0 ± 0.5 °C | Molar enthalpy of transition or fusion [2]: 3.61 ± 0.311 kcal/mol
